Test results taken from patent US6495542B1, “Benzamide derivatives as vasopressin antagonists” (Fujisawa Pharmaceutical Co., Ltd., priority 1998, dated 2002).
Where a name gives a salt, the structure may show the parent alone.

Key:
[1] = biological target: Vasopressin 1 (VI) Receptor (Rattus norvegicus, UniProt P30560); test: Vasopressin 1 (V1) receptor binding, rat; details: Test 1 V1 receptor binding
Description: (§1) Vasopressin 1 (VI) Receptor Binding
(§2) Competition assays were conducted at equilibrium (15 minutes at 30° C.) by using 1.5 nM ^3H-vasopressin (40-87 Ci/mmol; New England Nuclear) in 100 mM Tris-HCl buffer (pH 7.4). Nonspecific binding was determined by using 1 μM vasopressin. After incubation, the reaction was terminated by adding 5 ml of ice-cold 100 mM Tris-HCl buffer (pH 7.4), and then filtered immediately through Whatman glass filter (GF/C). The filter was washed twice with the same buffer. The glass filter was placed in a liquid scintillation cocktail, and the radioactivity thereof was counted by using a liquid scintillation counter. Competition activity of the test compound was represented by IC50 values.

[2] = biological target: T1, Vasopressin 1 (VI) Receptor (Homo sapiens, UniProt P37288); test: Vasopressin 1 (V1) receptor binding, 3H-vasopressin competition on human platelet membranes; details: competition with 1.5 nM 3H-vasopressin, 15 minutes at 30° C.
T1 construct: Platelet-rich plasma (PRP) was prepared by centrifugation of whole blood; from tissue; host or cells: platelet membranes from blood of a normal subject
Description: as §1
Blood was obtained from normal subject by venipuncture. Platelet-rich plasma (PRP) was prepared by centrifugation of whole blood at 200×g for 10 minutes. PRP was centrifuged at 45,000×g for 30 minutes. The remaining pellet was resuspended in 10 volume of ice-cold 100 mM Tris-HCl buffer (pH 7.4, containing 5 mM MgCl2, 0.1% bovine serum albumin and 1 mM EDTA), and again centrifuged at 45,000×g for 30 minutes. The final pellet was resuspended in 100 mM Tris-HCl buffer. The resulting suspension was used immediately for the binding assay.
as §2

human V2 receptor = biological target: T2, human V2 receptor (Homo sapiens, UniProt P30518); test: Vasopressin 2 (V2) receptor binding, 3H-vasopressin competition on membranes of CHO cells expressing human V2 receptor; details: human V2 receptor in CHO cells; competition with 0.5 nm 3H-vasopressin, 2 hours at 22° C.
T2 construct: expressed in transfected cells
Excerpt: Vasopressin 2 (V2) Receptor Binding
For binding assays, a receptor cDNA was permanently expressed in Chinese hamster ovary (CHO) cells. A vector directing expression of the cDNA of a human V2 receptor was transfected into the CHO cells, and the clonal cell lines expressing the human V2 receptor were established essentially as described previously (Nakajima, Y., et. al. J. Biol. chem., 267, 2437, 1992).
DNA-transfected cells were harvested and homogenized in ice-cold […] Tris-HCl (pH 7.4), 10 mM MgCl2, 1 mM EDTA and 5 μg/ml p-amidinophenylmethylsulfonyl fluoride (A-PMSF). The homogenate was centrifuged at 500×g for 10 minutes. The supernatant was centrifuged at […] for 1 hour. The final pellet was suspended in 25 mM Tris-HCl buffer (pH 7.4, containing 10 mM MgCl2, 1 mM EDTA and 5 μg/ml A-PMSF), and stored in small aliquots at −80° C.
Competition assays were conducted at equilibrium (2 hours at 22° C.) by using 0.5 nm ^3H-vasopressin (40-87 Ci/mmol; New England Nuclear) in 100 mM Tris-HCl buffer (pH 7.4, containing 5 mM MgCl2, 5 μg/ml A-PMSF, 4 μg/ml leupeptin, 40 μg/ml bacitracin, 20 μg/ml chymostatin and 0.1% bovine serum albimin). Nonspecific binding was determined by using 1 μM vasopressin. After incubation, the reaction mixture was immediately filtered through Whatman glass filter (GF/C). The filter was washed twice with the same buffer. The radioactivity was counted by using a liquid scintillation counter. Competition activity of the test compound was represented by IC50 values.

T2 sequence (P30518 whole entry): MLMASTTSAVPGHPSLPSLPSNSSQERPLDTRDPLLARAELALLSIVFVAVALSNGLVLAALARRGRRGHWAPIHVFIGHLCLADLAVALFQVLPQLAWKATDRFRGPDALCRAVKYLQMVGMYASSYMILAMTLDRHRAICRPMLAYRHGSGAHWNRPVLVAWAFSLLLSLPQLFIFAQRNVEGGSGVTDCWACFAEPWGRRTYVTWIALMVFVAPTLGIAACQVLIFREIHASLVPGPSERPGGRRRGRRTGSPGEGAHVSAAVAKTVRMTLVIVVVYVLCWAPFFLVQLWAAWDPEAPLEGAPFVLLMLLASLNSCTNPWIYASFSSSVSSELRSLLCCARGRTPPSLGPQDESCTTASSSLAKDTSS
T1 sequence (P37288 whole entry): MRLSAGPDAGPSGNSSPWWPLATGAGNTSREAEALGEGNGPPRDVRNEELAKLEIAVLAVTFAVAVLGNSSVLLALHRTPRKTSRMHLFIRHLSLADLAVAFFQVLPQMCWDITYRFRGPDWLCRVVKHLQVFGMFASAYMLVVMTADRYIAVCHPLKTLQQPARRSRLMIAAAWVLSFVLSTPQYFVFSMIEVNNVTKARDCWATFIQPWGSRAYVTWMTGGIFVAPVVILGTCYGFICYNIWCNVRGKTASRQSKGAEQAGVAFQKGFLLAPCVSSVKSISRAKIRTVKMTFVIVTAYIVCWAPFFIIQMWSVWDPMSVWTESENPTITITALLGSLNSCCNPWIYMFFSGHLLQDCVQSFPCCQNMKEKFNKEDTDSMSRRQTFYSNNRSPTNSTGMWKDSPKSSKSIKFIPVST
Vasopressin 1 (VI) Receptor (Rattus norvegicus, UniProt P30560), sequence (P30560 whole entry): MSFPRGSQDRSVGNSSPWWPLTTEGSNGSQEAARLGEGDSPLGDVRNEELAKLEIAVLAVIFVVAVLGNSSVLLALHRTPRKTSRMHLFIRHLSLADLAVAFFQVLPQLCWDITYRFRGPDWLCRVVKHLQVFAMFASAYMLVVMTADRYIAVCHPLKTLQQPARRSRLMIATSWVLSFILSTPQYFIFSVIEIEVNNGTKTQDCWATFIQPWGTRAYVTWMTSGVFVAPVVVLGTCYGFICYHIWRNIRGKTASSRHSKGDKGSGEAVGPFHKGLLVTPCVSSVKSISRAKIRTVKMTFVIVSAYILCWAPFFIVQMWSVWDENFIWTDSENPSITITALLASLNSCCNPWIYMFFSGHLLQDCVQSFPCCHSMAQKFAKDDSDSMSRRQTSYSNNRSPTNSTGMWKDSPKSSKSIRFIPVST

| IC50 [1] | IC50 [2] | IC50 (human V2 receptor) | SMILES |
| --- | --- | --- | --- |
| 1.7 nM | 0.7 nM | 104 nM | CCc1nc2c(NC(=O)c3ccc(C(=O)N4CCCCc5ccccc54)cc3OC)cccc2[nH]1 [Example 55, N-(2-Ethyl-1H-benzimidazol-4-yl)-2-methoxy-4-(2,3,4,5-tetrahydro-1H-1-benzazepin-1-yl)carbonylbenzamide hydrochloride] |
| 0.2 nM | 0.08 nM | 140 nM | COc1cc(C(=O)N2CCCCc3ccccc32)ccc1C(=O)Nc1cccc2[nH]c(N(C)CCN)nc12 [Example 76, N-[2-[N-(2-Aminoethyl)-N-methylamino]-1H-benzimidazol-4-yl]-2-methoxy-4-(2,3,4,5-tetrahydro-1H-1-benzazepin-1-yl)carbonylbenzamide dihydrochloride] |
| 2.2 nM | 0.5 nM | 159 nM | COc1cc(C(=O)N2CCCCc3ccccc32)ccc1C(=O)Nc1cccc2[nH]c(C(=O)N(C)C)nc12 [Example 73, N-[2-(N,N-Dimethylcarbamoyl)-1H-benzimidazol-4-yl]-2-methoxy-4-(2,3,4,5-tetrahydro-1H-1-benzazepin-1-yl)carbonylbenzamide] |

Second part, the compound before the results:

| SMILES | IC50 [1] | IC50 [2] | IC50 (human V2 receptor) |
| --- | --- | --- | --- |
| COc1cc(C(=O)N2CCCCc3ccccc32)ccc1C(=O)Nc1cccc2[nH]c(C)nc12 [Example 2, 2-methoxy-N-(2-methyl-1H-benzimidazol-4-yl)-4-(2,3,4,5-tetrahydro-1H-1-benzazepin-1-yl)-carbonylbenzamide] | 2.1 nM | 0.41 nM | 241 nM |
| COc1cc(C(=O)N2CCCCc3ccccc32)ccc1C(=O)Nc1cccc2[nH]cnc12 [Example 50, N-(1H-Benzimidazol-4-yl)-2-methoxy-4-(2,3,4,5-tetrahydro-1H-1-benzazepin-1-yl)carbonylbenzamide hydrochloride] | 1.8 nM | 0.55 nM | 69 nM |
